Experimental data reported in US12097173B2, “Volatile organic compound formulations having antimicrobial activity” (priority 2019, dated 2024).

Assays:
Assay type in all cases: cell-based
[1] = system: Cercospora beticola; test: plate bioassay of volatile test mixtures, growth inhibition; conditions: for percent inhibition of the growth of Cercospora beticola: Table 4, 30 hr at room temperature, compared to control
Experimental: (§1) FIG. 1 illustrates a plate bioassay to determine the bioactivity of various esters when combined with a 1:1 mix of the two organic acids as per Table 2. The test organisms were as follows—Cercospora (dark-lower left bottom) then clockwise—Phytophthora, Verticillium, Sclerotinia, Pythium. Fusarium, Trichoderma, Rhizoctonia, and Aspergillus. The streaks were Saccharomyces (far right bottom) then Candida, E coli and Bacillus (left bottom). A=control plate, and B=plate with System 1 after incubation for 30 hr.
(§2) FIG. 9 depicts the biological activities of various test mixtures against a panel of test microbes. A small plug of each organism was placed in the periphery of the PDA plate. In the center well was placed the test solution in the plastic cup holder. A control plate (A) was also set up. After 30 hr the growth of the test organisms was compared to that of the control and the % inhibition was calculated. The (B) plate contained the test mixture. Measurements were made 30 hr after plate set up.
(§3) FIG. 1. Indicates how the assays were done to yield the data sets in Table 1. The various esters were combined with a 1:1 mixture of propanoic acid and isobutryic acid and these were added 7:2 V/V with the ester to be tested.
(§4) Shown in Table 1, are the inhibition and killing effects of propanoic acid, and isobutryic acid together and alone and with various esters. The tests were conducted over the course of 30 hr at 22° C. Measurements were made on appropriate controls and thus the percentage of inhibition calculations could be made on treatments vs the growth on a control organism (non-treated). The bacteria and yeast like organisms were evaluated on the basis of relative growth rates after 30 hr. Those highlighted areas on the table show those compounds (esters) having the most compatibility with propanoic and isobutryic acid 1:1 v/v mixtures with the appropriate esters at a 7:2 ratio—Systems 1 and 2 above. It is from this test that Systems 1 and 2 were discovered. The acids were added at […] individually and combination of the esters with the acids were added at the […] in the plate assay.
as §2, with “Tests were conducted as similarly described for Systems 1 and 2 above (FIG. 9) to ascertain” for “FIG. 9 depicts”

[2] = system: Phytophthora cinnamomi; test: as above; conditions: for percent inhibition of the growth of Phytophthora cinnamomi: Table 4, 30 hr at room temperature, compared to control
Experimental: as §1, §2, §3, §4
as §2, with “Tests were conducted as similarly described for Systems 1 and 2 above (FIG. 9) to ascertain” for “FIG. 9 depicts”

[3] = system: Pythium ultimum; test: as above; conditions: for percent inhibition of the growth of Pythium ultimum: Table 4, 30 hr at room temperature, compared to control
Experimental: as §1, §2, §3, §4
as §2, with “Tests were conducted as similarly described for Systems 1 and 2 above (FIG. 9) to ascertain” for “FIG. 9 depicts”

[4] = system: Rhizoctonia solani; test: as above; conditions: for percent inhibition of the growth of Rhizoctonia solani: Table 4, 30 hr at room temperature, compared to control
Experimental: as §1, §2, §3, §4
as §2, with “Tests were conducted as similarly described for Systems 1 and 2 above (FIG. 9) to ascertain” for “FIG. 9 depicts”

[5] = system: Trichoderma viridae; test: as above; conditions: for percent inhibition of the growth of Trichoderma viridae: Table 4, 30 hr at room temperature, compared to control
Experimental: as §1, §2, §3, §4
as §2, with “Tests were conducted as similarly described for Systems 1 and 2 above (FIG. 9) to ascertain” for “FIG. 9 depicts”

[6] = system: Verticillium dahliae; test: as above; conditions: for percent inhibition of the growth of Verticillium dahliae: Table 4, 30 hr at room temperature, compared to control
Experimental: as §1, §2, §3, §4
as §2, with “Tests were conducted as similarly described for Systems 1 and 2 above (FIG. 9) to ascertain” for “FIG. 9 depicts”

[7] = system: Sclerotinia sclerotiorum; test: as above; conditions: for percent inhibition of the growth of Sclerotinia sclerotiorum: Table 4, 30 hr at room temperature, compared to control
Experimental: as §1, §2, §3
The tests were conducted over the course of 30 hr at 22° C. Measurements were made on appropriate controls and thus the percentage of inhibition calculations could be made on treatments vs the growth on a control organism (non-treated). The bacteria and yeast like organisms were evaluated on the basis of relative growth rates after 30 hr. […] The acids were added at […] individually and combination of the esters with the acids were added at the […] in the plate assay.
as §2, with “Tests were conducted as similarly described for Systems 1 and 2 above (FIG. 9) to ascertain” for “FIG. 9 depicts”

[8] = system: Aspergillus fumigatus; test: as above; conditions: 30 hr at 22° C.; esters with 1:1 v/v propanoic acid and isobutryic acid (acids to ester 7:2 v/v), 9 ul; acids 7 ul
Experimental: as §1, §3, §4

[9] = system: Fusarium subglutinans; test: as above; conditions: 30 hr at 22° C.; esters with 1:1 v/v propanoic acid and isobutryic acid (acids to ester 7:2 v/v), 9 ul; acids 7 ul
Experimental: as §1, §3, §4

[10] = system: Bacillus subtilus; test: plate bioassay of volatile test mixtures, relative growth of streak
Experimental: as §1, §2, §3, §4
as §2, with “Tests were conducted as similarly described for Systems 1 and 2 above (FIG. 9) to ascertain” for “FIG. 9 depicts”

[11] = system: Candida albicans; test: as above
Experimental: as §1, §2, §3, §4
as §2, with “Tests were conducted as similarly described for Systems 1 and 2 above (FIG. 9) to ascertain” for “FIG. 9 depicts”

[12] = system: Escherichia coli; test: as above
Experimental: as §1, §2, §3, §4
as §2, with “Tests were conducted as similarly described for Systems 1 and 2 above (FIG. 9) to ascertain” for “FIG. 9 depicts”

[13] = system: Saccharomyces cerevicae; test: as above; conditions: for growth of Saccharomyces cerevisiae: Table 4, 30 hr at room temperature
Experimental: as §1, §2, §3, §4
as §2, with “Tests were conducted as similarly described for Systems 1 and 2 above (FIG. 9) to ascertain” for “FIG. 9 depicts”

[14] = system: Aspergillus flavus; test: plate bioassay of volatile test mixtures, growth inhibition; conditions: Table 4; 30 hr at room temperature, compared to control
Experimental: as §2
as §2, with “Tests were conducted as similarly described for Systems 1 and 2 above (FIG. 9) to ascertain” for “FIG. 9 depicts”
(§5) All testing was done according to the methods in Table 4

[15] = system: Fusarium solani; test: as above; conditions: Table 4; 30 hr at room temperature, compared to control
Experimental: as §2
as §2, with “Tests were conducted as similarly described for Systems 1 and 2 above (FIG. 9) to ascertain” for “FIG. 9 depicts”
as §5

[16] = 30 hr at 22° C., esters with 1:1 v/v propanoic acid and isobutryic acid (acids to ester 7:2 v/v), 9 ul, acids 7 ul
[17] = Table 4, 30 hr at room temperature
[18] = relative growth after 30 hr at 22° C., esters with 1:1 v/v propanoic acid and isobutryic acid (7:2 v/v), 9 ul, acids 7 ul

| Molecule | percent inhibition of the growth of Cercospora beticola [1] [%] | percent inhibition of the growth of Phytophthora cinnamomi [2] [%] | percent inhibition of the growth of Pythium ultimum [3] [%] | percent inhibition of the growth of Rhizoctonia solani [4] [%] | percent inhibition of the growth of Trichoderma viridae [5] [%] | percent inhibition of the growth of Verticillium dahliae [6] [%] | percent inhibition of the growth of Sclerotinia sclerotiorum [7] [%] | growth of Bacillus subtilus [10, 17] | growth of Candida albicans [11, 17] | growth of Escherichia coli [12, 17] | growth of Saccharomyces cerevisiae [13] | percent inhibition of the growth of Aspergillus flavus [14] [%] | percent inhibition of the growth of Fusarium solani [15] [%] | further results |
| --- | --- | --- | --- | --- | --- | --- | --- | --- | --- | --- | --- | --- | --- | --- |
| CCC(=O)O [Propanoic Acid, reference compound] | 66 | 38 | 100 | 81 | 45 | 83 | 0 | No | Medium | No | Yes | 52 | 17 | inhibition of Cercospora beticola [1, 16]: 95%; inhibition of Phytophthora cinnamomi [2, 16]: 67%; inhibition of Pythium ultimum [3, 16]: 91%; inhibition of Rhizoctonia solani [4, 16]: 100%; inhibition of Trichoderma viridae [5, 16]: 53%; inhibition of Verticillium dahliae [6, 16]: 96%; inhibition of Sclerotinia sclerotiorum [7, 16]: 60%; inhibition of Aspergillus fumigatus [8]: 80%; inhibition of Fusarium subglutinans [9]: 83%; growth of Bacillus subtilus [10, 18]: No Growth; growth of Candida albicans [11, 18]: Growth Observed; growth of Escherichia coli [12, 18]: No Growth; growth of Saccharomyces cerevicae [13, 18]: Growth Observed |
| Isoamyl Hexonates [reference compound] | 83 | 13 | 28 | 0 | 13 | 0 | 66 | Yes | Yes | Yes | Yes | 66 | 83 |  |
